Source: US9427415B2, “Methods and compositions for modifying sensorial perception” (The Procter & Gamble Company, priority 2014, dated 2016)
Where a name gives a salt, the structure may show the parent alone. Read-outs that look alike come from different tables or passages of the source.

How the values were obtained:
human TRPA1 = target: T1, human TRPA1 (Homo sapiens, UniProt O75762, K186N/R3C/R58T); experiment: Intracellular calcium (Fluo-4, FLIPR) activation of TRPA1 cells by GRAS compounds; assay type: cell-based; settings: relative to AITC 30 μM; for activation at 1000 µM / A1 activation, % of agonist value: 1 mM;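 on all read-outs here: TRPA1-expressing cells, fluorescence read on a FLIPR Tetra (ex 488 nm, em 514 nm) every 2 s for 10 min after compound addition, baseline subtracted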
T1 construct: expressed in transfected cells; pcDNA3 control cells
T1 sequence (O75762 whole entry R3C/R58T/K186N): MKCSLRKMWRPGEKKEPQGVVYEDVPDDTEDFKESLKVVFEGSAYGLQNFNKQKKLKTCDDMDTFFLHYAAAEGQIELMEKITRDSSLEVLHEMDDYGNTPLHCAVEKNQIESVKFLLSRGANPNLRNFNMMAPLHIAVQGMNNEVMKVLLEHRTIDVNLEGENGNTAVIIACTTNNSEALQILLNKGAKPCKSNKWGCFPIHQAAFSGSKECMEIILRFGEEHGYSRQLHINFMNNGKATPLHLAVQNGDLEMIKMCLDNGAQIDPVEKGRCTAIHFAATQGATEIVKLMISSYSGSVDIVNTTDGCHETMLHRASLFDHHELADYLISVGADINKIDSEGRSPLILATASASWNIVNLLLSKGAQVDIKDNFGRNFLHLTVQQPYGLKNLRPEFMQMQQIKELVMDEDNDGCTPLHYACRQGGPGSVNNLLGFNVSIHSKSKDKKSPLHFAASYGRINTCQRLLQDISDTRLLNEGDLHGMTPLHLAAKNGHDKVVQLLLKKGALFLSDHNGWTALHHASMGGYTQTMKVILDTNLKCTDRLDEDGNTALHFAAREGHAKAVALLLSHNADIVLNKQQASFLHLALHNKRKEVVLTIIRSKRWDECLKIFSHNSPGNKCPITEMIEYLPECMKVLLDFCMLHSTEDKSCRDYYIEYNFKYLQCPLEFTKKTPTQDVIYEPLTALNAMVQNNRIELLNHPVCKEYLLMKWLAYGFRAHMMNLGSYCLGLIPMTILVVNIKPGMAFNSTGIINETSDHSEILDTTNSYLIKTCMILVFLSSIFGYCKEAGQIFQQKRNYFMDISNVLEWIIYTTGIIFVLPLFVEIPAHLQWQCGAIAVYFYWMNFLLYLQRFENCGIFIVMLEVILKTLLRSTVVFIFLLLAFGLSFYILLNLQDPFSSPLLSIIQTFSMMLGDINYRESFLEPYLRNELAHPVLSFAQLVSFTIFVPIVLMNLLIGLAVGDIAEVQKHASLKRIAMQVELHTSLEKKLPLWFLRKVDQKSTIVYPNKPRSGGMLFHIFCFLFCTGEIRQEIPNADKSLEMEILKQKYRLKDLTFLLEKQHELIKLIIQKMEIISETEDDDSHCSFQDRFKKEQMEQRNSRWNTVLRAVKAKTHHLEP

TRPA1V1 = experiment: Intracellular calcium (Fluo-4, FLIPR) activation of TRPA1V1 cells (co-expressing TRPA1 and TRPV1) by GRAS compounds; assay type: cell-based, human; settings: relative to AITC 30 μM;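 further: HEK293 cells co-expressing TRPA1 and TRPV1, fluorescence read at 488/514 nm after baseline subtraction, recorded every 2 s over 10 min, ionomycin 10 µM and buffer as controls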
[1] = Table 1(d), read-out: A1 activation, % of agonist value
[2] = Table 1(c), read-out: A1 activation, % of agonist value
[3] = Table 1(e), read-out: A1 activation, % of agonist value

| Molecule | activation at 1000 µM (human TRPA1; [2]) [%] | A1V1 activation, % of agonist value (TRPA1V1; Table 1(c), 1 mM) [%] | further results |
| --- | --- | --- | --- |
| CCOC(=O)c1ccccc1O [Ethyl salicylate] | – | – | activation at 1000 µM (human TRPA1; [1]): 41%; A1V1 activation, % of agonist value (TRPA1V1; Table 1(d), 1 mM): 28% |
| CSSc1ccoc1C [Methyl 2-methyl-3-furyl disulfide] | 52.6 | 52 | – |
| CC=CC=CCO [2,4-Hexadienol] | 78 | 78.68 | – |
| CSCCC=O [3-(Methylthio)propionaldehyde] | – | – | activation at 1000 µM (human TRPA1; [1]): 53.8%; A1V1 activation, % of agonist value (TRPA1V1; Table 1(d), 1 mM): 32.4% |
| CCC(=O)OCCC(C)CCC=C(C)C (centres unmarked) [Citronellyl propionate] | – | – | activation at 100 µM (human TRPA1; Table 1(c), 100 μM (*), read-out: A1 activation, % of agonist value): 52.5%; A1V1 activation, % of agonist value (TRPA1V1; Table 1(c), 100 μM (*)): 43.2% |
| CC1=CC(C)C(C=O)CC1 (centres unmarked) [Trivertal] | – | 36.46 | A1 activation, % of agonist value (human TRPA1; Table 1(c)): 35.43% |
| C=CCOC(=O)c1ccccc1N [Allyl anthranilate] | 73.8 | 75.03 | – |
| CC(C)=CCC[C@](C)(O)[C@@H]1CC=C(C)CC1 [(−)-Alpha-Bisabolol] | – | 83.53 | A1 activation, % of agonist value (human TRPA1; Table 1(c)): 71.26% |
| Bisabolene | – | – | A1 activation, % of agonist value (human TRPA1; Table 1(d)): 77%; A1V1 activation, % of agonist value (TRPA1V1; Table 1(d), 1 mM): 46.2% |
| CCC(CC)C(=O)O [2-Ethylbutyric acid] | – | – | activation at 1000 µM (human TRPA1; [1]): 67.7%; A1V1 activation, % of agonist value (TRPA1V1; Table 1(d), 1 mM): 34.87% |
| CC1=C(/C=C/C(C)=C/C=C/C(C)=C/CO)C(C)(C)CCC1 [Retinol] | 80 | 67.79 | – |
| C=CCCC=O [4-Pentenal] | 75.4 | 84.24 | – |
| CC(C)CC=C(C=O)c1ccccc1 [5-Methy1-2-pheny1-2-hexenal] | – | – | A1 activation, % of agonist value (human TRPA1; Table 1(e)): 60.5%; A1V1 activation, % of agonist value (TRPA1V1; Table 1(e), 1 mM): 89.8% |
| Cc1cccc(C)c1S [2,6-Dimethylthiophenol] | 84.4 | 85.5 | – |
| C/C=C/C=C/C=O [(E,E)-2,4-Hexadienal] | 92 | 108.71 | – |
| CCCCC/C=C\C/C=C\CCCCCCCC(=O)OC [Methyl linoleate] | – | – | activation at 1000 µM (human TRPA1; [3]): 31%; A1V1 activation, % of agonist value (TRPA1V1; Table 1(e), 1 mM): 81.7% |
| CC(=O)OCc1ccc(C)cc1 [4-Methylbenzyl acetate] | – | – | activation at 1000 µM (human TRPA1; [3]): 58.9%; A1V1 activation, % of agonist value (TRPA1V1; Table 1(e), 1 mM): 88.05% |
| C/C=C/C=C/C(=O)OC [Methyl sorbate] | 76 | 81.15 | activation at 1000 µM (human TRPA1; [3]): 46.4%; A1V1 activation, % of agonist value (TRPA1V1; Table 1(e), 1 mM): 83.3% |
| C=C1CC/C=C(\C)CC[C@@H]2[C@@H]1CC2(C)C [beta-Caryophyllene] | – | – | activation at 1000 µM (human TRPA1; [1]): 134%; A1V1 activation, % of agonist value (TRPA1V1; Table 1(d), 1 mM): 103.8% |
| CCCC=CC=CC=O [2,4-Octadienal] | 80.9 | 82.7 | – |
| C=CC(C)=CCC=C(C)C [beta-Ocimene] | 112 | 92 | – |
| CC1=CCC(C(C)(C)OC=O)CC1 (stereo not drawn) [alpha-Terpinyl formate] | – | 71 | A1 activation, % of agonist value (human TRPA1; Table 1(c)): 82.2% |
| CCCCCCC#CC(=O)OC [Methyl 2-nonynoate] | – | – | activation at 1000 µM (human TRPA1; [1]): 101%; A1V1 activation, % of agonist value (TRPA1V1; Table 1(d), 1 mM): 76.1% |
| SCCCCCCS [1,6-Hexanedithiol] | 68.6 | 54 | – |
| COC(=O)c1ccc(O)cc1 [Methylparaben] | 62 | 66.33 | – |
| CCCC/C=C/C=O [(E)-2-Heptenal] | 112 | 96.6 | – |
| COc1ccc(C=O)cc1OC [Veratraldehyde] | 73.8 | 69.76 | – |
